These results are taken from patent US5874412A, “Bis-anthracyclines with high activity against doxorubicin resistant tumors” (priority 1997, dated 1999).

For data set [1], the system named is DNA. In words: Viscosity studies (binding mode, relative viscosity of DNA). The conditions noted are these: for binding mode from viscosity: in words, slope compared with daunorubicin; for slope of cubed root of the relative viscosity vs bound drug per DNA base pair: linear least squares fits, FIG. 20. The source says:
FIG. 20. Viscosity studies of WP631-DNA interaction. The cubed root of the relative viscosity (.eta./.eta.0) is shown as a function of the ratio of bound drug per DNA base pair: solid circles, ethidium bromide; open diamonds, daunorubicin; solid diamonds, WP63 1.
The bisanthracyclines may be tested as effective intercalating agents using viscosity assays as described by Suh and Chaires (1995). Such assays are well known to those of skill in the art. In theory, for monointercalation,plots of the cubed root of the relative viscosity ((.eta./.eta.0)^1/3) versus the binding ratio (bound drug/DNA bp) ought to have a slope of 1.0. For bisintercalators, the slope is expected to be twice that observed for monointercalators, an expectation that has been verified for a variety of bisintercalating compounds (Wakelin, 1986). Thus in order to test the effectiveness of a candidate bisintercalator the viscosity of a DNA solution is measured according to assays well known to those of skill in the art (Suh and Chaires, 1995) and compared to the viscosity of a known intercalator such as daunorubicin. If the candidate substance is higher than that of the control monointercalator then the candidate substance is likely to be an effective bisintercalator.
Viscosity Studies. Relative viscosity studies were conducted exactly as described previously (Suh and Chaires, 1995). Data were cast into a plot of (.eta./.eta.0)^1/3 versus ratio of bound drug per DNA base pair, in accord with the theory of Cohen and Eisenberg (1969). Ethidium bromide and daunorubicin were run as controls for these experiments.
WP631 Bisintercalates into DNA. In the absence of high-resolution structural data, hydrodynamic studies, especially viscosity, provide the most reliable means of inferring the binding mode of agents that interact with DNA (Suh and Chaires, 1995). […] The theory of Cohen and Eisenberg (1969) predicts that, for monointercalation,plots of the cubed root of the relative viscosity ((.eta./.eta.0)^1/3) versus the binding ratio (bound drug/DNA bp) ought to have a slope of 1.0.
For bisintercalators, the slope is expected to be twice that observed for monointercalators, an expectation that has been verified for a variety of bisintercalating compounds (Wakelin, 1986). […] The model was constructed using Hyper-Chem software (v. 4.5, Hypercube, Inc.) by using the coordinates of the high-resolution structure reported by Wang et al. (1987) for a 2:1 daunorubicin-DNA complex. The sequence of the hexanucleotide in that study was d(G.CTAG.C)3, where the two equivalent intercalation sites are indicated.

Data set [2] concerns the target herring sperm DNA. The conditions noted are these: cited from earlier work.
Data set [3] deals with DNA. The conditions noted are these: literature; cited from earlier work.
The next data set concerns MCF-7 cells. Description: MTT cytotoxicity assay, sensitive MCF-7 cells. It is filed as cell-based, human. The conditions noted are these: for IC50: Homo sapiens, MCF7, MTT, 72 h, read-out: ID50 MCF-7.
The test system of data set [4] is KB-V-1 cells.
The test system of data set [5] is KB-V-1 cells. In words: cells. The conditions noted are these: Homo sapiens, KB-V1, read-out: ID50 KB-V-1.
A further data set concerns KB-3-1 cells. Description: MTT cytotoxicity assay, sensitive KB-3-1 cells. The conditions noted are these: Homo sapiens, KB 3-1, read-out: ID50 KB-3-1. A general note: Formazan colour is commonly taken as a measure of viable cells.
Data set [6] relates to herring sperm DNA. Description: UV melting studies of DNA with drug; binding constant from Tm shift. The conditions noted are these: for Kd: BPE buffer.
The test system of data set [7] is herring sperm DNA. In kind it is binding.
Data set [8] deals with MCF-7/VP-16 cells. The conditions noted are these: for RI (resistance index) MCF-7/VP16 / MCF-7: human, mcf-7/vp-16 / mcf-7 cells, 4320 min.
Data set [9] relates to MCF-7/VP-16 cells. In words: cells. The conditions noted are these: Homo sapiens, MCF7, 72 h, read-out: ID50 MCF-7/VP16.
The conditions of data set [10]: Young et al., 1985; cited from earlier work.
The test system of another data set is topoisomerase II. The conditions noted are these: Hsiang et al., 1989; cited from earlier work.

SMILES strings stand for the structures. Where “and” joins values, the source holds several entries; their conditions need not be identical. Identical values can stand only once. Entries after “also recorded” stand apart in the source; their conditions may differ. Counter-ions that a name gives are not always drawn. Like-named read-outs stand apart in the source and are kept apart here.

On to `COc1cccc2c1C(=O)c1c(O)c3c(c(O)c1C2=O)C[C@@](O)(C(C)=O)C[C@@H]3O[C@H]1C[C@H](N)[C@H](O)[C@H](C)O1` [daunorubicin], for which, in the data set with DNA [1], the “binding mode from viscosity” value was “viscosity changes in excellent agreement with the theory” and the “slope of cubed root of the relative viscosity vs bound drug per DNA base pair” value is on record as 0.89±0.04. Also, the Kd on herring sperm DNA [2] (BPE buffer, at 20° C., read-out: binding constant of daunorubicin (converted)) was 0.1 µM and 0.0625 µM. Moreover, in the data set on herring sperm DNA [2] (comparable ionic conditions), the “binding enthalpy ΔH” value is -10.8 kcal/mol, the “binding entropy ΔS” value is given as -3 cal mol^-1 K^-1 and the “binding free energy ΔG^0” value was -9.9 kcal/mol. For the same molecule, the “preferred DNA binding sites” value with DNA [3] is “triplet sequences 5'-A/TCG and 5'-A/TGC are preferred binding sites”.
As for `COc1cccc2c1C(=O)c1c(O)c3c(c(O)c1C2=O)C[C@@](O)(C(C)=O)C[C@@H]3O[C@H]1C[C@H](O)[C@H](NCc2ccc(CN[C@@H]3[C@H](C)O[C@@H](O[C@H]4C[C@](O)(C(C)=O)Cc5c(O)c6c(c(O)c54)C(=O)c4c(OC)cccc4C6=O)C[C@@H]3O)cc2)[C@H](C)O1` [WP652, α,α'-Bis-4'-N-(4'-amino-3'-deamino-4'-deoxy-3'-hydroxydaunorubicin)-p-xylene hydrochloride], in the data set on MCF-7 cells, the “potency in MCF-7 cells compared with DOX, in words” value is reported as “less potent than DOX”. In addition, the IC50 in the data set on MCF-7 cells worked out at 3.9 ± 3.3 µM; in the data set on KB-V-1 cells [5], 7.1 ± 1.2 µM; in the data set on KB-3-1 cells, 4.8 ± 0.5 µM. Moreover, the “cytotoxicity in MDR KB-V1 cells, in words” value in the data set with KB-V-1 cells [4] is “unusually active against the MDR cells”.
As for `COc1cccc2c1C(=O)c1c(O)c3c(c(O)c1C2=O)C[C@@](O)(C(C)=O)C[C@@H]3O[C@H]1C[C@H](NCc2ccc(CN[C@H]3C[C@H](O[C@H]4C[C@](O)(C(C)=O)Cc5c(O)c6c(c(O)c54)C(=O)c4c(OC)cccc4C6=O)O[C@@H](C)[C@H]3O)cc2)[C@H](O)[C@H](C)O1` [WP631, α,α'-Bis-[3'-N-(daunorubicin)]-p-xylene hydrochloride], the “binding mode from viscosity” value in the data set on DNA [1] (hydrochloride) is listed as “binds to DNA by bisintercalation; also recorded: nearly double that observed for daunorubicin”. For the same molecule, the “slope of cubed root of the relative viscosity vs bound drug per DNA base pair” value in the data set on DNA [1] is given as 1.58±0.08. In addition, in the data set with herring sperm DNA [6] (10 μM WP631, BPE buffer (16 mM total Na+), DNA alone 67.2° C.), the “Tm of herring sperm DNA in presence of drug” value was 93.5 °C. For the same molecule, on herring sperm DNA [6] (at 20° C., ΔHb assumed constant with temperature, read-out: binding constant at 20° C. (van't Hoff) (converted)), the Kd was 0.0037 nM. In addition, the Kd at herring sperm DNA [6] (at 93.5° C., assuming n=6 bp, read-out: binding constant K at Tm (converted)) is 114 nM. The “expected binding constant (square of monomer constant)” value in the data set with herring sperm DNA [6] (expected for bisintercalator, not measured) was 10^14 M^-1. Besides, the “DNA affinity compared with polyamides, in words” value in the data set with herring sperm DNA [6] (vs pyrrole-imidazole polyamides (Trauger, 1996)) was “surpasses that of the polyamides”. In the data set with herring sperm DNA [7], the “binding entropy ΔS” value is listed as -51 cal mol^-1 K^-1, the “binding free energy ΔG^0” value was -15.3 kcal/mol and the “entropic contribution TΔS” value is -14.9 kcal/mol. Further, in the data set on herring sperm DNA [7] (DSC, BPE buffer, saturating amounts of WP631), the “enthalpy of melting of DNA-WP631 complex ΔH2” value was 11.4 ± 1.0 kcal/mol. Moreover, the “binding enthalpy ΔHb” value with herring sperm DNA [7] (hydrochloride) is -30.2 ± 2.6 kcal/mol and -30.2 kcal/mol. In addition, in the data set with MCF-7 cells, the “potency in MCF-7 cells compared with DOX, in words” value is “less potent than DOX” and the IC50 is 4.83 ± 2.5 µM. Besides, in the data set on MCF-7/VP-16 cells [8], the “cytotoxicity in MCF-7/VP-16 cells compared with DOX, in words” value is on record as “dramatic increase in cytotoxicity” and the “RI (resistance index) MCF-7/VP16 / MCF-7” value came out at 0.5. Further, the IC50 with MCF-7/VP-16 cells [9] was 2.5 ± 3.4 µM.
Take `COc1cccc2c1C(=O)c1c(O)c3c(c(O)c1C2=O)C[C@@](O)(C(=O)CO)C[C@@H]3O[C@H]1C[C@H](N)[C@H](O)[C@H](C)O1` [DOX, doxorubicin]: the IC50 with MCF-7 cells was 0.9 ± 0.47 µM; with KB-V-1 cells [5] it was 299 µM; with MCF-7/VP-16 cells [9], 14.9 ± 0.89 µM; in the data set with KB-3-1 cells it was 3.7 ± 1.3 µM. Besides, the “cytotoxicity in MDR KB-V1 cells, in words” value in the data set on KB-V-1 cells [4] was “inactive”. Also, the “RI (resistance index) KB-V-1 / KB-3-1” value in the data set with KB-V-1 cells [4] (human, kb-v-1 / kb-3-1 cells) came to 80.8. Further, in the data set with MCF-7/VP-16 cells [8], the “DOX resistance index relative to that of WP631” value amounted to 34 fold. Also, the “RI (resistance index) MCF-7/VP16 / MCF-7” value with MCF-7/VP-16 cells [8] was determined as 17. In addition, in the data set on DNA [3], the “preferred DNA binding sites” value was “binds preferentially to CGA or CGT”. Besides, in [10], the adverse systemic effects entry is “acute myelosuppression, cumulative cardiotoxicity, and gastrointestinal toxicity”.
`CN(C)CCN1C(=O)c2cccc3cc(N)cc(c23)C1=O` [amonafide]: in the data set on topoisomerase II, the “inhibition of topoisomerase II” value is “inhibit topoisomerase II”.
Turning to `CC[n+]1c(-c2ccccc2)c2cc(N)ccc2c2ccc(N)cc21` [ethidium bromide, Ethidium bromide], in the data set on DNA [1], the “binding mode from viscosity” value is on record as “viscosity changes in excellent agreement with the theory” and the “slope of cubed root of the relative viscosity vs bound drug per DNA base pair” value is reported as 0.84±0.02.
